Like-named read-outs stand apart in the source and are kept apart here.
Experiments:
EKVX = EKVX (Non-Small Cell Lung Cancer), 48 h, SRB
SW-620 = SW-620 (Colon Cancer), 48 h, SRB
HCT-116 [1] = details: HCT-116 (Colon Cancer), 48 h, SRB
HOP-62 = HOP-62 (Non-Small Cell Lung Cancer), 48 h, SRB
A549/ATCC = A549/ATCC (Non-Small Cell Lung Cancer), 48 h, SRB
K-562 = experiment: cells; details: Homo sapiens, K562, 48 h; for CC50: read-out: LC50
RPMI-8226 [2] = experiment: cells; details: Homo sapiens, RPMI-8226, 48 h; for CC50: read-out: LC50
UO-31 = experiment: NCI DTP 60 cell line screen, SRB; details: for GI50 / CC50: Homo sapiens, UO-31, 48 h; for CC50: read-out: LC50; for TGI: UO-31 (Renal Cancer), 48 h, SRB
CAKI-1 = experiment: NCI DTP 60 cell line screen, SRB; details: for TGI: CAKI-1 (Renal Cancer), 48 h, SRB; for GI50 / CC50: Homo sapiens, CAKI-1, 48 h; for CC50: read-out: LC50
MALME-3M = experiment: NCI DTP 60 cell line screen, SRB; details: 48 h; for GI50 / CC50: Homo sapiens, Malme-3M; for CC50: read-out: LC50; for TGI: MALME-3M (Melanoma), SRB
60 tumor cell lines = experiment: NCI60 full panel MG_MID; details: for GI50 / CC50: Homo sapiens; for CC50: read-out: 60 lines MG_MID, LC50; for 60 lines MG_MID, TGI: mean over all cell lines
Procedure: At the first stage of biological activity study, the antitumor activity screening of the selected compounds 2b, 2c, 2f, 2h, and 2j was performed according to the NCI DTP (USA) standard protocol at the concentrations ranging from 10^−4 to 10^−8 M toward 60 tumor cell lines. The percentage of growth was evaluated spectrophotometrically versus controls not treated with test agents after 48 h exposure and using SRB protein assay to estimate cell viability or growth. Dose–response parameters were calculated for each cell line: GI50—molar concentration of the compound that inhibits 50% net cell growth; TGI—molar concentration of the compound leading to the total inhibition; and LC50—molar concentration of the compound leading to 50% net cell death. Furthermore, mean graph midpoints (MG_MID) were calculated for each of the parameters, giving an average activity parameter over all cell lines for the tested compound. For the MG_MID calculation, insensitive cell lines were included with the highest concentration tested.
Primary anticancer assay was performed on a panel of approximately sixty human tumor cell lines derived from nine neoplastic diseases, in accordance with the protocol of the Drug Evaluation Branch, National Cancer Institute, Bethesda. Tested compounds were added to the culture at a single concentration (10^−5 M) and the cultures were incubated for 48 h. End point determinations were made with a protein binding dye, sulforhodamine B (SRB). […] The percentage growth was evaluated spectrophotometrically versus controls not treated with test agents.
Dose–response parameters (GI50, TGI, LC50) were calculated for each compound. […] The drug concentration resulting in total growth inhibition (TGI) was calculated from Ti = Tz. The LC50 (concentration of drug resulting in a 50% reduction in the measured protein at the end of the drug treatment as compared to that at the beginning) indicating a net loss of cells following treatment was calculated from [(Ti − Tz)/Tz] × 100 = −50 (2). Values were calculated for each of these parameters if the level of activity was reached; however, if the effect was not reached or was excessive, the value for that parameter was expressed as more or less than the maximum or minimum concentration tested.

SNB-75 = experiment: cells; details: Homo sapiens, SNB-75, 48 h; for CC50: read-out: LC50
KM12 = KM12 (Colon Cancer), 48 h, SRB
BT-549 = experiment: NCI DTP 60 cell line screen, SRB; details: for TGI: BT-549 (Breast Cancer), 48 h, SRB; for GI50 / CC50: Homo sapiens, BT-549, 48 h; for CC50: read-out: LC50
UACC-62 = experiment: NCI DTP 60 cell line screen, SRB; details: for GI50 / CC50: Homo sapiens, UACC-62, 48 h; for CC50: read-out: LC50; for TGI: UACC-62 (Melanoma), 48 h, SRB
SK-MEL-28 [3] = details: SK-MEL-28 (Melanoma), 48 h, SRB
SK-MEL-28 [4] = experiment: cells; details: Homo sapiens, SK-MEL-28, 48 h; for CC50: read-out: LC50
HCT-116 [5] = experiment: cells; details: Homo sapiens, HCT-116, 48 h; for CC50: read-out: LC50
ACHN = experiment: NCI DTP 60 cell line screen, SRB; details: 48 h; for TGI: ACHN (Renal Cancer), SRB; for GI50 / CC50: Homo sapiens, ACHN; for CC50: read-out: LC50
MDA-MB-435 = experiment: NCI DTP 60 cell line screen, SRB
TK-10 = experiment: NCI DTP 60 cell line screen, SRB; details: for GI50 / CC50: Homo sapiens, TK-10, 48 h; for CC50: read-out: LC50; for TGI: TK-10 (Renal Cancer), 48 h, SRB
SK-MEL-2 = SK-MEL-2 (Melanoma), 48 h, SRB
RPMI-8226 [6] = details: for TI (Therapeutic Index): GI50 (normal blood lymphocyte)/GI50 (RPMI-8226); for TGI: RPMI-8226 (Leukemia), 48 h, SRB
NCI-H522 = experiment: NCI DTP 60 cell line screen, SRB
[7] = read-out: 60 lines MG_MID, GI50

With `O=C(O)CCN1C(=O)/C(=C/C(Cl)=C/c2ccc([N+](=O)[O-])cc2)SC1=S` [Compound 2h, 3-{5-[(Z,2Z)-2-Chloro-3-(4-nitrophenyl)-2-propenylidene]-4-oxo-2-thioxothiazolidin-3-yl}propanoic acid] the TGI (EKVX) was 4.01 µM, the TGI (SW-620) was 3.25 µM and the TGI (HCT-116 [1]) was 1.19 µM. It also gave a TGI (HOP-62) of 19.9 µM, a TGI (A549/ATCC) of 7.62 µM and a GI50 (K-562) of 0.212 µM. The CC50 (K-562) was > 100 µM, the GI50 (RPMI-8226 [2]) was 0.138 µM and the CC50 (RPMI-8226 [2]) was > 100 µM. For the same molecule, the GI50 (UO-31) was 0.812 µM, the CC50 (UO-31) was 6.31 µM and the TGI (UO-31) was 2.43 µM. For the same molecule, the TGI (CAKI-1) was 6.14 µM, the GI50 (CAKI-1) was 0.485 µM and the CC50 (CAKI-1) was 47.1 µM. The GI50 (MALME-3M) was 9.7 µM, the CC50 (MALME-3M) was > 100 µM and the TGI (MALME-3M) was 61.9 µM. It also gave a GI50 (60 tumor cell lines; [7]) of 1.57 µM, a CC50 (60 tumor cell lines) of 65 µM and a GI50 (60 tumor cell lines; read-out: GI50 concentration range) of 0.01 to 0.02 µM. The “60 lines MG_MID, TGI” value (60 tumor cell lines) was 13.3 µM, the GI50 (SNB-75) was 12.5 µM and the CC50 (SNB-75) was > 100 µM. It also gave a TGI (KM12) of 29.5 µM, a TGI (BT-549) of 0.920 µM and a GI50 (BT-549) of 0.247 µM. For the same molecule, the CC50 (BT-549) was 36.3 µM, the GI50 (UACC-62) was 1.23 µM and the CC50 (UACC-62) was 7.18 µM. The TGI (UACC-62) was 2.97 µM, the TGI (SK-MEL-28 [3]) was 23.6 µM and the GI50 (SK-MEL-28 [4]) was 3.59 µM. For the same molecule, the CC50 (SK-MEL-28 [4]) was 89.5 µM, the GI50 (HCT-116 [5]) was 0.27 µM and the CC50 (HCT-116 [5]) was > 100 µM. It also gave a TGI (ACHN) of 2.42 µM, a GI50 (ACHN) of 1.02 µM and a CC50 (ACHN) of 5.76 µM. The GI50 (MDA-MB-435; Homo sapiens, MDA-MB-435, 48 h) was 1.25 µM, the CC50 (MDA-MB-435; Homo sapiens, MDA-MB-435, 48 h, read-out: LC50) was 29.3 µM and the TGI (MDA-MB-435; MDA-MB-435 (Breast Cancer), 48 h, SRB) was 4.12 µM. It also gave a GI50 (TK-10) of 2.33 µM, a CC50 (TK-10) of 92 µM and a TGI (TK-10) of 16.9 µM. For the same molecule, the TGI (SK-MEL-2) was 4.93 µM, the “TI (Therapeutic Index)” value (RPMI-8226 [6]) was 395.22 and the TGI (RPMI-8226 [6]) was 1.30 µM.

`O=C(O)C(Cc1ccccc1)N1C(=O)/C(=C/C(Cl)=C/c2ccc([N+](=O)[O-])cc2)SC1=S` (centres unmarked) [Compound 2j, 2-{5-[(Z,2Z)-2-Chloro-3-(4-nitrophenyl)-2-propenylidene]-4-oxo-2-thioxothiazolidin-3-yl}-3-phenylpropanoic acid] was tested, and the TGI (EKVX) was 7.29 µM, the TGI (SW-620) was 4.39 µM and the TGI (HCT-116 [1]) was 5.47 µM. The TGI (HOP-62) was 6.75 µM, the TGI (A549/ATCC) was > 100 µM and the GI50 (K-562) was 3.01 µM. For the same molecule, the CC50 (K-562) was > 100 µM, the GI50 (RPMI-8226 [2]) was 3.22 µM and the CC50 (RPMI-8226 [2]) was > 100 µM. It also gave a GI50 (UO-31) of 1.59 µM, a CC50 (UO-31) of 6.05 µM and a TGI (UO-31) of 3.10 µM. The TGI (CAKI-1) was 5.09 µM, the GI50 (CAKI-1) was 2.28 µM and the CC50 (CAKI-1) was 16.7 µM. For the same molecule, the GI50 (MALME-3M) was 2.13 µM, the CC50 (MALME-3M) was > 100 µM and the TGI (MALME-3M) was 4.82 µM. The GI50 (60 tumor cell lines; [7]) was 4.09 µM, the CC50 (60 tumor cell lines) was 73.9 µM and the “60 lines MG_MID, TGI” value (60 tumor cell lines) was 40.6 µM. The GI50 (SNB-75) was 1.96 µM, the CC50 (SNB-75) was > 100 µM and the TGI (KM12) was 4.35 µM. The TGI (BT-549) was 4.17 µM, the GI50 (BT-549) was 1.79 µM and the CC50 (BT-549) was > 100 µM. It also gave a GI50 (UACC-62) of 2 µM, a CC50 (UACC-62) of 30.2 µM and a TGI (UACC-62) of 4.85 µM. The TGI (SK-MEL-28 [3]) was 4.68 µM, the GI50 (SK-MEL-28 [4]) was 2.16 µM and the CC50 (SK-MEL-28 [4]) was 11.6 µM. It also gave a GI50 (HCT-116 [5]) of 2.01 µM, a CC50 (HCT-116 [5]) of 56.7 µM and a TGI (ACHN) of 3.30 µM. It also gave a GI50 (ACHN) of 1.8 µM, a CC50 (ACHN) of 6.04 µM and a GI50 (NCI-H522; Homo sapiens, NCI-H522, 48 h) of 1.72 µM. It also gave a CC50 (NCI-H522; Homo sapiens, NCI-H522, 48 h, read-out: LC50) of 29.5 µM, a TGI (NCI-H522; NCI-H522 (Non-Small Cell Lung Cancer), 48 h, SRB) of 4.47 µM and a GI50 (TK-10) of 2.43 µM. For the same molecule, the CC50 (TK-10) was > 100 µM, the TGI (TK-10) was > 100 µM and the TGI (SK-MEL-2) was 4.50 µM. For the same molecule, the “TI (Therapeutic Index)” value (RPMI-8226 [6]) was 15.21 and the TGI (RPMI-8226 [6]) was > 100 µM.
